Experimental data published in patent publication US20240398844A1, “PHENYLCOUMARINS FOR TREATING INFLAMMATION” (Ohio State Innovation Foundation, priority 2021, published 2024).
“Also recorded” adds a separate entry of the source.

What was measured:
PPAR-γ = target: T1, PPAR-γ (Homo sapiens, UniProt P37231); test: PPAR-γ ELISA Assay in HeLa cells (in vitro PPAR-γ assay); format: cell-based; details: 50 μg/mL; for PPAR-γ activity in the in vitro assay (in words): versus positive control rosiglitazone
T1 construct: endogenous in cells; host or cells: HeLa
T1 sequence (P37231 1-505): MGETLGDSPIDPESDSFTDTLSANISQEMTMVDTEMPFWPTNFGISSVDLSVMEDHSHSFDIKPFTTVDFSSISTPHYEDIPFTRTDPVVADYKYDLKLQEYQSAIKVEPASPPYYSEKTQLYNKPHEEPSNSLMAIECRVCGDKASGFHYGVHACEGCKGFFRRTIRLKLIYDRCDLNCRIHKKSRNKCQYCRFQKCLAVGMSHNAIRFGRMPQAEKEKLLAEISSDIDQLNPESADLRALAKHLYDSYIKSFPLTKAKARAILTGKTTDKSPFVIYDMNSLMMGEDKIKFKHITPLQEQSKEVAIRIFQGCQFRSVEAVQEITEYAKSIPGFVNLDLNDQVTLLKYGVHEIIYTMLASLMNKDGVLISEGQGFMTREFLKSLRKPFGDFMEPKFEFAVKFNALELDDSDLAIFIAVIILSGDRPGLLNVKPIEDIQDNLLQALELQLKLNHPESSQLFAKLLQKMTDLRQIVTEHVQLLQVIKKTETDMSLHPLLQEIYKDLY
Procedure: In addition to the Western blot, the diverse library was also screened in the in vitro PPAR-γ assay. […] The compounds were tested at 50 μg/mL according to the protocol detailed in section 3.2.3.

NFκB = NFκB in vitro assay, NFκB translocation to the nucleus in HeLa cells; format: cell-based; details: for IC50: inhibiting NFκB translocation to the nucleus, tested at 50, 5, 0.5, and 0.05 μM
Procedure: Following derivatization and purification, compound 40 was tested in the NFκB and PPAR-Y in vitro assays, as well as the diabetic zebrafish Western blot. The three 4-phenylcoumarin glycoside natural products from the diverse library (22, 23, and 24) and the isopropyl ether derivative (40), were evaluated for PPAR-γ activity at 50 μg/mL in HeLa cells according to a PPAR-γ ELISA Assay (Table 4). […] NFκB Assay (Table 4).
As an excellent lead, 24 was derivatized to yield 40, and both compounds were evaluated in the NFκB and PPAR-γ in vitro assays (Table 4). […] To investigate 24 and 40 in a live, metabolizing system with appropriate hormone responses, the compounds were tested (at 10, 5, and 1 μM) in the larval diabetic zebrafish assay.

PEPCK [1] = test: Diabetic zebrafish Western blot, PEPCK expression; format: in vivo; details: 10 μM, FIG. 8
Procedure: Alloxan-induced diabetic zebrafish were treated with compounds for immunoblot to validate the newly developed animal model, determine the antidiabetic potential of natural product leads, evaluate glucose metabolism, and discover possible mechanisms of action.
At 72 hpf, naturally dechorionated zebrafish were sorted into a 24-well microplate with 10 fish per well. Type 2 diabetes was induced with the diabetogenic agent alloxan at a dose of 0.5 mg/mL in system water for 3 hours. The incubation solution was changed to 0.01% DMSO in system water with compounds at concentrations of 20 μg/mL or […], respectively. After 3 hours of treatment with natural product samples, 10 mg/mL D-glucose was administered in system water for 30 minutes, followed by 1 hour in fresh system water to metabolize the glucose and natural product leads. Upon completion of the 4-phase treatment cycle, zebrafish treatment groups were snap frozen into individual microcentrifuge tubes on dry ice, stored overnight at −80° C., thawed, homogenized with 2 μL PBS per animal, and centrifuged at 4° C. for 1 hour at 17,000 rpm. Protein content of homogenate supernatant was determined using the Pierce BCA Protein Assay kit (Pierce Biotechnology) and bovine serum albumin (BSA) standard curve. Absorbance of protein solutions from zebrafish homogenates and serial dilutions of the BSA standard were measured at 544 nm, using a FLUOstar Optima plate reader (BMG Labtechnologies GmbH, Inc.). Homogenates were analyzed by Western blot. Equal amounts of protein (20 μg) were combined with 4× lithium dodecyl sulphate (LDS) loading buffer (NuPAGE, Life Technologies, Carlsbad, CA, USA), brought to volume (15 μL) with PBS, and heated to 95° C. for 5 minutes. Proteins were resolved using NuPAGE Bis-Tris 4-12% gradient sodium dodecyl sulfate polyacrylamide gel electrophoresis (SDS-PAGE) gels together with SeeBlue Plus2 Pre-Stained Standard Ladder (Life Technologies).
Electrophoresis was performed using NuPAGE MES SDS Running Buffer and XCell SureLock Mini-Cell Electrophoresis System (Life Technologies). Separated proteins were transferred from the gel to a polyvinylidene fluoride (PVDF) membrane using tris buffered saline with Tween-20 (TBST) buffer. The blots were blocked in 3% BSA in TBST and subsequently probed using primary antibodies (1:1000 in 1% BSA in TBST) against each target overnight (Table 1). The secondary, horseradish peroxidase (HRP) conjugated antibodies (1:2000) were obtained from Santa Cruz Biotechnology Inc., (Santa Cruz, CA, USA). Conjugated antibodies were detected using SuperSignal West Femto chemiluminescent substrate from Pierce Biotechnology. […] Band density was quantified for proteins of interest using ImageJ Gel Analysis. […]

PEPCK [2] = test: Diabetic zebrafish Western blot, PEPCK expression; format: in vivo; details: FIG. 8; for PEPCK expression, efficacy of lower doses: diabetic zebrafish, 5 and 1 μM; for PEPCK expression, dose dependence: diabetic zebrafish, 10, 5, and 1 μM

| Structure (SMILES) | activation at 50 µg/mL (PPAR-γ; Table 4) [%] | PPAR-γ activity in the in vitro assay (in words) (PPAR-γ) | times less effective at inhibiting NFκB translocation than parent compound 24 (NFκB) [times] | IC50 (NFκB) [µM] | PEPCK expression versus rosiglitazone (PEPCK [1]) | PEPCK expression, efficacy of lower doses (PEPCK [2]) | PEPCK expression, dose dependence (PEPCK [2]) | % Activation PPAR-γ (PPAR-γ; Table 2) [%] | % Activation PPAR-γ (PPAR-γ; Table 4) [%] |
| --- | --- | --- | --- | --- | --- | --- | --- | --- | --- |
| COc1cc(O[C@@H]2OCC(O)(CO[C@@H]3OC(CO)[C@@H](O)C(O)C3O)C2O)c2c(-c3ccc(OC(C)C)c(O)c3)cc(=O)oc2c1 (single isomer, unassigned) [Compound 40] | 0 | loss of all activity | 2.6 | 10.2 | approximately equal efficacy to rosiglitazone | not effective | dose-dependent increase in PEPCK expression; also recorded: slightly less active than the parent compound |  |  |
| COc1cc(O[C@@H]2O[C@H](CO[C@@H]3OCC(O)(CO)[C@H]3O)[C@@H](O)[C@H](O)[C@H]2O)c2c(-c3ccc(O)c(O)c3)cc(=O)oc2c1 (stereo partly drawn) [Compound 24, 5-O-[β-D-apiofuranosyl-(1→6)-β-D-glucopyranosyl]-7-methoxy-3′,4′-dihydroxy-4-phenylcoumarin] |  | top performers |  | 3.95 | greater gluconeogenic effect than rosiglitazone | not effective | dose-dependent increase in PEPCK expression | 101 | 101 |
